Experimental data taken from US10633542B2, “Azacyanine dyes and use thereof” (Ecole Polytechnique Fédérale de Lausanne (EPFL), priority 2018, dated 2020).
Values joined by “and” are separate entries in the source; they are usually repeats but may differ in a detail not shown here. Identical values can stand only once.

What was measured:
A431 cells = assay: Cell uptake in live cells; assay type: cell-based; settings: for Average values: average of wells; for Avg Radiant Efficiency: single wells
Experimental: Therefore, we performed such experiments in live cells with Compound VIII compound. […] The following procedure was used:
Cells were grown in 96 well plates to confluent level. Media was removed, cells washed with PBS, incubated for a set time (5, 15, or 30 minutes) at varying concentrations of the dye (5 μM, 10 μM, and 25 μM) in PBS. Dye was removed, cells washed twice with PBS, then PBS added for imaging.
The values for each well were consistent with that of the control group of wells that were not exposed to the dye in wells A1-A3. The bright well at F12 is a solution of Compound VIII at 5 μM in PBS to insure imaging of the dye is occurring.

[1] = Shortwave infrared / NIR-II imaging with SWIR camera system; assay type: physicochemical; settings: commercial SWIR camera system
Text: It was already shown that in the NIR-II region there is less absorption and […] enabling 2 times deeper imaging with much higher resolution respectively. […] The results are shown on FIG. 24. The camera used for obtaining the data has the following specs: “Princeton NIRvana detector, IsoPlane SCT320 spectrometer, Nikon inverted microscope, 658 nm, 785 nm and Xenon lamp/monochromator illumination sources” The other derivatives of aza-cyanine analogs covered in the current invention are currently being tested to find the optimal SWIR imaging dye.

necrotic tissue = assay: Necrosis imaging in vivo after cardiotoxin injection; set-up: species or system mouse
Experimental: Cardiotoxin (10 μM in 50 μL of PBS) was injected into the right thigh of the mouse and 50 μL of PBS was injected into the left thigh. 24 hours post-injection of toxin, Compound VIII ([…] in 100 μL PBS) was injected intravenously into the tail of the mouse. […] The results are shown below in FIG. 20-22. The brightnesses of the images are not on scale with one another. The quantification is shown on the same graph. Significant signal over-background ratios resulting from accumulation of the dye in necrosis areas observed as early as 10 min post-injection of the Compound VIII making it ideal for clinical translation.

[2] = cited from earlier work
[3] = in methanol, calibration standard; cited from earlier work
[4] = tested on: sliced skin tissue of a nude mouse (dry-ice treated); assay: Ex vivo cell death assay, cryogenic tissue damage; settings: 1 uM, 5 uM, 10 uM, 10 min at room temperature
Experimental: Ex vivo cell death assay for compounds, VI and XIV were studied using a method of cryogenic tissue damage. Briefly, a bar of a dry ice was applied to sliced skin tissue of a nude mouse recently sacrificed in a petri dish for a period of 60 sec. Subsequently, the skin tissue samples were incubated with different concentrations of dye VI and XIV (1 uM, 5 uM, and 10 uM) for 10 min at room temperature.

## CN1C=CC=C2C1=N/C(=C\C=C1/C[N+](C)(C)CC(/C=C/C3=Nc4c(ccc[n+]4C)C3(C)C)=C1Cl)C2(C)C.I [Compound VIII]
A431 cells; 5 μM, 5 minutes
  Average values: 1.49E+07 [p/s/cm^2/sr]/[μW/cm^2]
  Avg Radiant Efficiency: 1.64E+07 [p/s/cm^2/sr]/[μW/cm^2] and 1.47E+07 [p/s/cm^2/sr]/[μW/cm^2] and 1.36E+07 [p/s/cm^2/sr]/[μW/cm^2]
A431 cells; 5 μM, 15 minutes
  Average values: 1.24E+07 [p/s/cm^2/sr]/[μW/cm^2]
  Avg Radiant Efficiency: 1.29E+07 [p/s/cm^2/sr]/[μW/cm^2] and 1.23E+07 [p/s/cm^2/sr]/[μW/cm^2] and 1.19E+07 [p/s/cm^2/sr]/[μW/cm^2]
A431 cells; 5 μM, 30 minutes
  Average values: 1.17E+07 [p/s/cm^2/sr]/[μW/cm^2]
  Avg Radiant Efficiency: 1.18E+07 [p/s/cm^2/sr]/[μW/cm^2] and 1.16E+07 [p/s/cm^2/sr]/[μW/cm^2] and 1.17E+07 [p/s/cm^2/sr]/[μW/cm^2]
A431 cells; 10 μM, 5 minutes
  Average values: 1.39E+07 [p/s/cm^2/sr]/[μW/cm^2]
  Avg Radiant Efficiency: 1.50E+07 [p/s/cm^2/sr]/[μW/cm^2] and 1.39E+07 [p/s/cm^2/sr]/[μW/cm^2] and 1.28E+07 [p/s/cm^2/sr]/[μW/cm^2]
A431 cells; 10 μM, 15 minutes
  Average values: 1.20E+07 [p/s/cm^2/sr]/[μW/cm^2]
  Avg Radiant Efficiency: 1.24E+07 [p/s/cm^2/sr]/[μW/cm^2] and 1.18E+07 [p/s/cm^2/sr]/[μW/cm^2] and 1.17E+07 [p/s/cm^2/sr]/[μW/cm^2]
A431 cells; 10 μM, 30 minutes
  Average values: 1.15E+07 [p/s/cm^2/sr]/[μW/cm^2]
  Avg Radiant Efficiency: 1.16E+07 [p/s/cm^2/sr]/[μW/cm^2] and 1.15E+07 [p/s/cm^2/sr]/[μW/cm^2] and 1.13E+07 [p/s/cm^2/sr]/[μW/cm^2]
A431 cells; 25 μM, 5 minutes
  Average values: 1.33E+07 [p/s/cm^2/sr]/[μW/cm^2]
  Avg Radiant Efficiency: 1.39E+07 [p/s/cm^2/sr]/[μW/cm^2] and 1.34E+07 [p/s/cm^2/sr]/[μW/cm^2] and 1.27E+07 [p/s/cm^2/sr]/[μW/cm^2]
A431 cells; 25 μM, 15 minutes
  Average values: 1.20E+07 [p/s/cm^2/sr]/[μW/cm^2]
  Avg Radiant Efficiency: 1.22E+07 [p/s/cm^2/sr]/[μW/cm^2] and 1.20E+07 [p/s/cm^2/sr]/[μW/cm^2] and 1.19E+07 [p/s/cm^2/sr]/[μW/cm^2]
A431 cells; 25 μM, 30 minutes
  Average values: 1.20E+07 [p/s/cm^2/sr]/[μW/cm^2]
  Avg Radiant Efficiency: 1.20E+07 [p/s/cm^2/sr]/[μW/cm^2]
A431 cells; long incubation periods (30 min), high concentrations (25 uM)
  uptake in live A431 cells: No uptake
A431 cells; wells B1-C10, 5-25 μM, 5-30 minutes
  radiance of wells incubated with the dye compared to that of the control: no significant difference
[1]
  absorption in the NIR-II region: absorbs in the NIR-II region
Necrotic tissue; cardiotoxin in right thigh, dye 40 μmoles in 100 μL PBS intravenously 24 hours later
  targeting of necrotic area in vivo: selectively targets the necrotic area
Necrotic tissue; mouse, intravenous
  clearance route: clears through the kidneys instead of accumulating in the liver
  time post-injection at which significant signal over-background ratios are observed: 10 min

## CC1(C)C(/C=C/C=C/C=C/C=C2\N(CCCCS(=O)(=O)O)c3ccc4ccccc4c3C2(C)C)=[N+](CCCCS(=O)(=O)[O-])c2ccc3ccccc3c21 [ICG, Indocyanine Green]
[2]
  solubility in saline: not readily soluble
[3]
  fluorescence quantum yield (QY): 7.8%

## CC1(C)C2=CC=CN(CCCCCC(=O)O)C2=N/C1=C/C=C1\C[N+](C)(C)CC(/C=C/C2=Nc3c(ccc[n+]3CCCCCC(=O)O)C2(C)C)=C1Cl [dye VI]
[1]
  absorption in the NIR-II region: absorbs in the NIR-II region
[4]
  fluorescence at the site of focal dry-ice treatment: strong fluorescence signal
  signal from the viable cells: no signal

## CC1(C)C2=CC=CN(CCCCCC(=O)O)C2=N/C1=C/C=C1\C[N+](C)(C)CC(/C=C/C2=Nc3c(ccc[n+]3CCCCCC(=O)O)C2(C)C)=C1Oc1ccc(S(=O)(=O)O)cc1.[Na+] [dye XIV]
[4]
  fluorescence at the site of focal dry-ice treatment: strong accumulation of fluorescence
